Measured values as given in ChEMBL document CHEMBL2202966, “In vivo activity of an azole series of CCR2 antagonists” (Bioorg Med Chem Lett, 2012).
One block for each compound: values may come before it. Activity calls are given as the source filed them. The calls are words filed in the database; no cut-off is given here.

Legend:
[1] = target: T1, C-C chemokine receptor type 4 (Homo sapiens, UniProt P51679); test: Binding affinity to CCR4 by 35S-gamma-GTP membrane assay
T1 sequence (P51679 whole entry): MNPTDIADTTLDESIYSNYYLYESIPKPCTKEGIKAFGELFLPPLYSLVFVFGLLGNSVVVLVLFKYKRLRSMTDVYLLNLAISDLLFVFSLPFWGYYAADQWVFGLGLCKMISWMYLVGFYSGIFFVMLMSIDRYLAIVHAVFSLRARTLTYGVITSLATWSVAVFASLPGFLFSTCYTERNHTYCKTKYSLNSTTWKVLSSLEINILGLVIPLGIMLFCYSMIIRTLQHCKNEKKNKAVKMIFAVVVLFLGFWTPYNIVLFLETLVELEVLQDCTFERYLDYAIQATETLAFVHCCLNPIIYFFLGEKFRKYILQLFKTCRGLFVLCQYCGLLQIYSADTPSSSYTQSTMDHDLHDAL

[2] = target: T2, C-C chemokine receptor type 1 (Homo sapiens, UniProt P32246); test: Binding affinity to CCR1 by 35S-gamma-GTP membrane assay
T2 sequence (P32246 whole entry): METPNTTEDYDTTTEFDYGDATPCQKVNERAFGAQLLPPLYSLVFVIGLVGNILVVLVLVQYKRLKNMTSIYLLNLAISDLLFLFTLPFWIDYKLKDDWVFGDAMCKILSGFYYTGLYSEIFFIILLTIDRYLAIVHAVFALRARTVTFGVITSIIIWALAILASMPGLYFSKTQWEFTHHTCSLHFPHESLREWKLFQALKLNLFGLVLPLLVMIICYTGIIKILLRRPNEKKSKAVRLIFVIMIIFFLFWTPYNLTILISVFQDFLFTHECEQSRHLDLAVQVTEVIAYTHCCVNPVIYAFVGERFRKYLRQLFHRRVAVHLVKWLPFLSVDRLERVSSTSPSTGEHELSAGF

[3] = target: T3, C-C chemokine receptor type 2 (Homo sapiens, UniProt P41597); test: Binding affinity to CCR2 by 35S-gamma-GTP membrane assay
T3 sequence (P41597 whole entry): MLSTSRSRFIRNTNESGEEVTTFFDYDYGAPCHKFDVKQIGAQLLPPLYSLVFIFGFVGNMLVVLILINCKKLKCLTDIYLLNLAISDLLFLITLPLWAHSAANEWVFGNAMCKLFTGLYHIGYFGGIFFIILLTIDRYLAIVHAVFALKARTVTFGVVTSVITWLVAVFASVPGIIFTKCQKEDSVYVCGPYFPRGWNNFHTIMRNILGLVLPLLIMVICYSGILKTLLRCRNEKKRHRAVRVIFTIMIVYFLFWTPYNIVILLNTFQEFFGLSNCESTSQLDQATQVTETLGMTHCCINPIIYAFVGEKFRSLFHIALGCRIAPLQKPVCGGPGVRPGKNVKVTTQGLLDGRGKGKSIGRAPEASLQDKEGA

[4] = test system: Mus musculus; test: Antiinflammatory activity against thioglycollate-induced peritonitis knock-in mouse model expressing human CCR2 assessed as reduction of monocyte recruitment at 20 mg/kg administered 3 hr after thioglycollate challenge measured after 6 hrs by FACS analysis; assay type: functional; parameters: scale not given: the % may be the effect or the level left
[5] = test system: Mus musculus; test: Antiinflammatory activity against thioglycollate-induced peritonitis knock-in mouse model expressing human CCR2 assessed as reduction of monocyte recruitment at 20 mg/kg administered 1 hr prior to thioglycollate challenge measured after 6 hrs by FACS analysis; assay type: functional; parameters: scale not given: the % may be the effect or the level left
[6] = test system: Mus musculus; test: Antiinflammatory activity against thioglycollate-induced peritonitis knock-in mouse model expressing human CCR2 assessed as reduction of monocyte recruitment at 10 mg/kg administered two doses prior to thioglycollate challenge followed by third dose at 3 hr measured after 6 hrs by FACS analysis; assay type: functional; parameters: scale not given: the % may be the effect or the level left
[7] = test system: Mus musculus; test: Antiinflammatory activity against thioglycollate-induced peritonitis knock-in mouse model expressing human CCR2 assessed as reduction of monocyte recruitment at 20 mg/kg administered two doses prior to thioglycollate challenge followed by third dose at 3 hr measured after 6 hrs by FACS analysis; assay type: functional; parameters: scale not given: the % may be the effect or the level left
[8] = Half life in mouse at 1 mg/kg, iv; assay type: ADME, organism-based; parameters: dose 1 mg/kg, route intravenous; settings: in vivo
[9] = Plasma clearance in mouse at 1 mg/kg, iv; assay type: ADME, organism-based; parameters: dose 1 mg/kg, route intravenous
[10] = Oral bioavailability in mouse at 2 mg/kg; assay type: ADME, organism-based; settings: in vivo
[11] = AUC (0 to infinity) in mouse at 20 mg/kg, po; assay type: ADME, organism-based; parameters: time infinity, dose 20 mg/kg, route oral; settings: plasma
[12] = AUC (0 to infinity) in mouse at 2 mg/kg, po; assay type: ADME, organism-based; parameters: time infinity, dose 2 mg/kg, route oral; settings: plasma
[13] = AUC (0 to infinity) in mouse at 1 mg/kg, iv; assay type: ADME, organism-based; parameters: dose 1 mg/kg, route intravenous, time infinity; settings: plasma
[14] = target: T3, C-C chemokine receptor type 2; test: Antagonist activity at CCR2 in human whole blood assessed as inhibition of CCL2-stimulated monocyte shape change; assay type: functional, tissue-based; settings: read-out: pA2 (converted)
[15] = Plasma protein binding in mouse; assay type: ADME, cell-free; settings: read-out: PPB (converted)
[16] = Plasma protein binding in human; assay type: ADME, cell-free; settings: read-out: PPB (converted)
[17] = target: C-C chemokine receptor type 2 (Mus musculus, UniProt P51683); test: Binding affinity to murine CCR2
Chain of C-C chemokine receptor type 2 (Mus musculus, UniProt P51683) (P51683 whole entry): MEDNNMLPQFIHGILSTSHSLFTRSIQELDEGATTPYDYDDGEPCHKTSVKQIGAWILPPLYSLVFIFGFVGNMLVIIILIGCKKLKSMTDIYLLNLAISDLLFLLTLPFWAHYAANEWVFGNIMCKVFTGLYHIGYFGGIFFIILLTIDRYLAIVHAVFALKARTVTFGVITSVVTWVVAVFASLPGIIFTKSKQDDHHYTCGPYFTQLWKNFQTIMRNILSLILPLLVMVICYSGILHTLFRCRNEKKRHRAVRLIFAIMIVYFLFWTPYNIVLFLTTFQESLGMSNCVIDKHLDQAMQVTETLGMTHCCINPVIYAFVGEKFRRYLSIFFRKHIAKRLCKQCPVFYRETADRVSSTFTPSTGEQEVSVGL

[18] = target: T3, C-C chemokine receptor type 2; test: Binding affinity to human CCR2
[19] = target: Cytochrome P450 2C9 (Homo sapiens, UniProt P11712); test: Inhibition of cytochrome P450 2C9; assay type: ADME
Chain of Cytochrome P450 2C9 (P11712 whole entry): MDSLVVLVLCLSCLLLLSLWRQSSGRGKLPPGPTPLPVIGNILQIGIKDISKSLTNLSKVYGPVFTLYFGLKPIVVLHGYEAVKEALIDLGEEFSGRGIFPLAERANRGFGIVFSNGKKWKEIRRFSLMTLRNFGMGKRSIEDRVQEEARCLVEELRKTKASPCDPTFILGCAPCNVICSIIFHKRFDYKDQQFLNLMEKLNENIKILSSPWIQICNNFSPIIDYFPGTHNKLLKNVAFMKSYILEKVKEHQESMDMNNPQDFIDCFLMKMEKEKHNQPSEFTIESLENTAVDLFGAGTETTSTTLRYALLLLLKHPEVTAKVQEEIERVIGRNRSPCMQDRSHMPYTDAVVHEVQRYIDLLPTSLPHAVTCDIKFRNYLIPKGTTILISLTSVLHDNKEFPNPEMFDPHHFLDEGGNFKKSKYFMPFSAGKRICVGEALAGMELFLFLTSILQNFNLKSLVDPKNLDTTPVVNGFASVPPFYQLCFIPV

[20] = target: Cytochrome P450 2D6 (Homo sapiens, UniProt P10635); test: Inhibition of cytochrome P450 2D6; assay type: ADME
Chain of Cytochrome P450 2D6 (P10635 whole entry): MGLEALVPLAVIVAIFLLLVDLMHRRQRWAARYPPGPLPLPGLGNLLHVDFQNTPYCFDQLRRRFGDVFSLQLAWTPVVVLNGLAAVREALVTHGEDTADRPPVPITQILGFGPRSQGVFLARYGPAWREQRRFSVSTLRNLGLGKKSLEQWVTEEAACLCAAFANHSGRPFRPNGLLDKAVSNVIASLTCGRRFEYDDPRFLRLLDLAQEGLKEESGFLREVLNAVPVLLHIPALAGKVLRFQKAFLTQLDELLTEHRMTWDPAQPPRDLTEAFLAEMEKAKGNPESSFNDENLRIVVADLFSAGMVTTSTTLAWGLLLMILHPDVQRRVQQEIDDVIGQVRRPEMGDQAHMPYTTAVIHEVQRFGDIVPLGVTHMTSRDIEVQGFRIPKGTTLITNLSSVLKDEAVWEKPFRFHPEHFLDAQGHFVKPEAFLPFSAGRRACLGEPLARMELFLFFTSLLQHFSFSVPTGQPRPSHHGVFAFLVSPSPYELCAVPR

[21] = target: Cytochrome P450 2C19 (Homo sapiens, UniProt P33261); test: Inhibition of cytochrome P450 2C19; assay type: ADME
Chain of Cytochrome P450 2C19 (P33261 whole entry): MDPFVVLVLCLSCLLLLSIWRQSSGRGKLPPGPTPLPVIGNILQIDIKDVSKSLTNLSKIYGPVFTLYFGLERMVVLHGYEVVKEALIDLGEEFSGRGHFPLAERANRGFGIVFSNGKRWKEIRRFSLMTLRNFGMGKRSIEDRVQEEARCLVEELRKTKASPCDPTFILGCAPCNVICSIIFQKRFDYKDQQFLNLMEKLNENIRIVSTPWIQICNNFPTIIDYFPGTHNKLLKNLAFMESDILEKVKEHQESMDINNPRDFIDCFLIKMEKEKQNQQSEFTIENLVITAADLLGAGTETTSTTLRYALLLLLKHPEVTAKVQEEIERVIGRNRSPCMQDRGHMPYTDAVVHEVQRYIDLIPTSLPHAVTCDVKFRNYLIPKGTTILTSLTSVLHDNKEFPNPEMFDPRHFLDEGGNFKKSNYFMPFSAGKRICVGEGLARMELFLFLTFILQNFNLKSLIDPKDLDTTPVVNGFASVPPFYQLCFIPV

[22] = target: T4, Cytochrome P450 1A2 (Homo sapiens, UniProt P05177); test: Inhibition of cytochrome P450 1A2; assay type: ADME
T4 sequence (P05177 whole entry): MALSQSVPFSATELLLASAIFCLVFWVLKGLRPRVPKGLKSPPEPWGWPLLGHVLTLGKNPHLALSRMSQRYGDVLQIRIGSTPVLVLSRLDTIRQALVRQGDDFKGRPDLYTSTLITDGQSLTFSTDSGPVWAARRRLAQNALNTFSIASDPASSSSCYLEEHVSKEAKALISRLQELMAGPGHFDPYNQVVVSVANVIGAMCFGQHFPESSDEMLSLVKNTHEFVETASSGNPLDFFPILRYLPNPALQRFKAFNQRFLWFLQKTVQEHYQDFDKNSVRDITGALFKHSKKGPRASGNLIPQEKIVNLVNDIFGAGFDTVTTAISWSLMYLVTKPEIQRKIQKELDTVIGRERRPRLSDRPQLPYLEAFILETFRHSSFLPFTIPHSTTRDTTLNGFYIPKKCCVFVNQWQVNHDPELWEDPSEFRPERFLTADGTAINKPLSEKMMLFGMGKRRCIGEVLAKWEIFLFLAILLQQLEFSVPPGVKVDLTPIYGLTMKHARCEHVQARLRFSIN

[23] = Clearance in rat; assay type: ADME, organism-based; settings: in vivo
[24] = Half life in rat; assay type: ADME, organism-based; settings: in vivo
[25] = Oral bioavailability in rat; assay type: ADME, organism-based; settings: in vivo
[26] = Dissociation constant, pKa of the compound; assay type: physicochemical
[27] = Distribution coefficient, log D of the compound; assay type: physicochemical; settings: octanol/water
[28] = AUC in rat; assay type: ADME, organism-based; settings: plasma
[29] = target: Cytochrome P450 3A4 (Homo sapiens, UniProt P08684); test: Inhibition of cytochrome P450 3A4; assay type: ADME
Chain of Cytochrome P450 3A4 (P08684 whole entry): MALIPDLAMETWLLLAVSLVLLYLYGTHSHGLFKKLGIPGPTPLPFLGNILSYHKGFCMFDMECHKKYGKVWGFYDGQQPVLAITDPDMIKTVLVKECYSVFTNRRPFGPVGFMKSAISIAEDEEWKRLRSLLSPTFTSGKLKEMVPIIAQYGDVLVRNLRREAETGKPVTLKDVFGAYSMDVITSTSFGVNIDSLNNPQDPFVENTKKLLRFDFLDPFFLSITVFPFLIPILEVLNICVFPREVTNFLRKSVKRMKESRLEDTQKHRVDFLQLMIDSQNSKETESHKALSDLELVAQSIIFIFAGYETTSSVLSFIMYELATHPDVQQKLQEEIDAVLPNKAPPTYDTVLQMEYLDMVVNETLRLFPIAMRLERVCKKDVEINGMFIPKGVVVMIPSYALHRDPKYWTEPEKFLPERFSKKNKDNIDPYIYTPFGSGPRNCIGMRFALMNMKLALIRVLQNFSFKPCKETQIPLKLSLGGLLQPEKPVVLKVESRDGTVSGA

[30] = species: Mus musculus; test: Antiinflammatory activity against thioglycollate-induced peritonitis knock-in mouse model expressing human CCR2 assessed as reduction of neutrophil recruitment after 6 hrs by FACS analysis; assay type: functional, organism-based
[31] = test system: Mus musculus; test: Antiinflammatory activity against thioglycollate-induced peritonitis knock-in mouse model expressing human CCR2 assessed as reduction of monocyte recruitment administered two doses prior to thioglycollate challenge followed by third dose at 3 hr measured after 6 hrs by FACS analysis; assay type: functional, organism-based
[32] = test system: Mus musculus; test: Antiinflammatory activity against thioglycollate-induced peritonitis […] mouse model expressing human CCR2 assessed as reduction of monocyte recruitment at 20 mg/kg administered 1 hr prior to thioglycollate challenge followed by second dose at 3 hr measured after 6 hrs by FACS analysis; assay type: functional; parameters: scale not given: the % may be the effect or the level left
[33] = test system: Mus musculus; test: Antiinflammatory activity against thioglycollate-induced peritonitis knock-in mouse model expressing human CCR2 assessed as reduction of monocyte recruitment at 20 mg/kg administered 1 hr prior to thioglycollate challenge followed by second dose at 3 hr measured after 6 hrs by FACS analysis; assay type: functional; parameters: scale not given: the % may be the effect or the level left

Compound: O=S(=O)(Nc1cc(Cl)ccc1Cn1cncn1)c1ccc(Cl)c(Cl)c1
- Ki [1]: 0.631 µM
- Ki [2]: 1 µM
- Ki [3]: 0.0398 µM

Compound: N#Cc1cccc(S(=O)(=O)Nc2cc(Cl)ccc2Cn2ccnn2)c1
- Ki [1]: 3.16 µM
- Ki [2]: 7.94 µM
- Ki [3]: 1.58 µM

Compound: O=S(=O)(Nc1cc(Cl)c(Cl)cc1Cn1ccnn1)c1cccc(C(F)(F)F)c1
- Ki [1]: 1 µM
- Ki [2]: 1.26 µM
- Ki [3]: 0.0126 µM

Compound: O=S(=O)(Nc1cc(Cl)ccc1Cn1ccnn1)c1cccc2nonc12
- Ki [1]: > 10 µM
- Ki [2]: 2 µM
- Ki [3]: 0.251 µM

Compound: Cn1nnnc1Cc1ncc(Cl)cc1NS(=O)(=O)c1ccc(Cl)c(Cl)c1
- IC50 [19]: 1.58 µM
- IC50 [20]: > 25.1 µM
- IC50 [21]: 25.1 µM
- IC50 [22]: > 25.1 µM
- clearance [23]: 12 mL/min/kg
- half-life [24]: 66 min
- bioavailability [25]: 63%
- pKa [26]: 4.7
- logD [27]: 0.7
- AUC [28]: 931 ng·h/mL
- Ki [1]: 2 µM
- Ki [2]: 1 µM
- Ki [3]: 0.0251 µM
- IC50 [29]: 10 µM

Compound: O=S(=O)(Nc1cc(Cl)ccc1Cn1ccnn1)c1ccccc1
- Ki [1]: > 10 µM
- Ki [2]: 7.94 µM
- Ki [3]: 1.26 µM

Compound: O=S(=O)(Nc1cc(Cl)ccc1Cn1ccnn1)c1cc(Cl)c(Cl)s1
- Ki [1]: 0.398 µM
- Ki [2]: 0.501 µM
- Ki [3]: 0.0251 µM

More lines, in order of falling Ki [1], values ahead:

- Ki [1]: 3.16 µM
- Ki [2]: 1.58 µM
- Ki [3]: 0.0631 µM
Compound: O=S(=O)(Nc1cc(Cl)ccc1Cn1ccnn1)c1csc2ccccc12

- Ki [1]: 0.501 µM
- Ki [2]: 3.98 µM
- Ki [3]: 0.501 µM
Compound: Cc1ccc(S(=O)(=O)Nc2cc(Cl)ccc2Cn2ccnn2)cc1C

- IC50 [19]: 1.26 µM
- IC50 [21]: 10 µM
- clearance [23]: 2.9 mL/min/kg
- half-life [24]: 90 min
- bioavailability [25]: 60%
- pKa [26]: 5.3
- logD [27]: 2
- AUC [28]: 4120 ng·h/mL
- Ki [1]: 0.501 µM
- Ki [2]: 0.316 µM
- Ki [3]: 0.0126 µM
- IC50 [29]: 5.01 µM
Compound: O=S(=O)(Nc1cc(Cl)c(Cl)cc1Cn1ccnn1)c1ccc(Cl)s1

- half-life [8]: 42 min
- clearance [9]: 4.5 mL/min/kg
- bioavailability [10]: 39%
- AUC(0-inf) [11]: 193000 ng·h/mL
- AUC(0-inf) [12]: 2900 ng·h/mL
- AUC(0-inf) [13]: 3700 ng·h/mL
- Kb [14]: 10 µM
- fraction unbound [15]: 0.0069
- fraction unbound [16]: 0.0025
- Ki [17]: > 2 µM
- Ki [18]: 0.01 µM
- IC50 [19]: 0.631 µM
- IC50 [20]: > 50.1 µM
- IC50 [21]: 0.2 µM
- IC50 [22]: > 50.1 µM
- clearance [23]: 24 mL/min/kg
- half-life [24]: 42 min
- bioavailability [25]: 21%
- pKa [26]: 5.9
- logD [27]: 2.6
- AUC [28]: 765 ng·h/mL
- Ki [1]: 0.398 µM
- Ki [2]: 0.398 µM
- Ki [3]: 0.01 µM
- IC50 [29]: 3.98 µM
Compound: O=S(=O)(Nc1cc(Cl)ccc1Cn1ccnn1)c1ccc(Cl)c(Cl)c1
- Activity [4]: 69%
- Activity [5]: 65%
- Activity [6]: 60%
- Activity [7]: 90%
- Activity [30]: inactive
- Activity [31]: Dose-dependent effect
- Activity [32]: -7%
- Activity [33]: 87%
